These results are taken from paper PMC9855333, “1-(Arylsulfonyl-isoindol-2-yl)piperazines as 5-HT6R Antagonists: Mechanochemical Synthesis, In Vitro Pharmacological Properties and Glioprotective Activity” (Biomolecules, 2022).

Each structure is given as a SMILES string.

Series [1] can be described thus: Cytotoxicity, MTT test, SH-SY5Y. Type of series: cell-based. The settings on record: human, SH-SY5Y cells (human neuroblastoma). The method, then:
(§1) Hepatotoxicity, neurotoxicity, and glial cytotoxicity were investigated using the following cellular models: human hepatocellular carcinoma (HepG2), human neuroblastoma (SHSY-5Y), and mouse astrocytes (C8-D1A), all from ATCC (American Type Culture Collection, Manassas, VA, USA). Cells were cultured in appropriate culture media recommended by ATCC supplemented with 10% fetal bovine serum (FBS; Gibco, Life Technologies, Carlsbad, CA, USA) and 1% antibiotic mixture (Gibco, Life Technologies, Carlsbad, CA, USA). Cells were cultured at standard conditions (5% CO2, 95% humidity, 37 °C). For cytotoxicity experiments, cells were seeded into 96 well plates at an initial density of 2000 cells/well. After overnight incubation, cells were treated with 3e, 3f, and 3g in a concentration range of 0.78–50 µM for 48 h; then, an MTT assay was performed as described previously. Briefly, following cell exposure, 10 µL of MTT reagent was added to each well. After the next 4 h, the medium was aspirated, and formazan produced in cells appeared as dark crystals in the bottom of the wells. Next, 100 µL DMSO was added to each well. Then, the optical density of the solution (OD) at 570 nm was determined on a plate reader (Spectra Max iD3, Molecular Devices, San Jose, CA, USA). The experiments were run three times in triplicates.
(In general: Formazan colour is commonly taken as a measure of viable cells.)

In series [2] the test system is 5-HT6R-operated Cdk5 signaling. The experiment in a line: Cdk5-dependent neurite growth in NG108-15 cells transiently expressing 5-HT6R. It is filed as cell-based. The settings on record: NG108-15 cells expressing 5-HT6R; for neurite length: treatment for 24 h (legend says 48 h), vehicle 16.95 ± 1.5 μm. On the procedure:
NG108-15 cells were transfected with plasmids encoding either cytosolic GFP or a GFP-tagged 5-HT6R and grown on glass coverslips for 6 h. Then, cells were treated with either vehicle or the evaluated compounds. Neurite growth was measured on cells imaged using an AxioImagerZ1 microscope equipped with epifluorescence (Zeiss) using the Neuron J plugin of the ImageJ software (NIH). A detailed description is reported in the Supporting Information.
3. Procedure for evaluation of the effect of tested compounds on Cdk5-dependent neurite
In line with previously reported methods, NG108-15 cells were transfected with plasmids encoding either cytosolic GFP or a GFP-tagged 5-HT6R in suspension using Lipofectamine 2000 (Life technologies) and plated on glass coverslips. Six hours after transfection, cells were treated with either DMSO (control), 3e, 3f and 3g or SB-258585 for 48 h. Cells were fixed in 4% paraformaldehyde (PFA) supplemented with 4% sucrose for 10 min. PFA fluorescence was quenched by incubating the cells in PBS containing 0.1 M glycine, prior to mounting in Prolong Gold antifade reagent (Thermo Fisher Scientific). Cells were imaged using an AxioImagerZ1 microscope equipped with epifluorescence (Zeiss), using a 20 × objective for cultured cells, and neurite length was assessed using the Neuron J plugin of the ImageJ software (NIH).

Series [3] addresses T1, 5-HT6R (Homo sapiens, UniProt P50406). The experiment in a line: Basal cAMP production by constitutively active 5-HT6R in NG108-15 cells (CAMYEL BRET). To be noted: NG108-15 cells transiently expressing 5-HT6R. It is filed as cell-based. Also noted: expressed in transfected cells; host or cells: NG108-15 (mouse neuroblastoma x rat glioma hybrid), transient co-transfection with CAMYEL, Lipofectamine 2000. The method, then:
Changes in cyclic AMP levels upon exposure to increasing concentrations of the tested compounds were assessed by BRET (Bioluminescence Resonance Energy Transfer) measurement using a Mithras LB 940 plate reader (Berthold Technologies), as previously described. A detailed description is reported in the Supporting Information.
2. Procedure for determination of functional activity at Gs signaling
2.1. Impact of compound 3e, 3f and 3g on cAMP production in 1321N1 cells The properties of evaluated compounds to inhibit cAMP production induced by 5-CT (1000 nM), a 5-HT6R agonist, was assessed according to previously published procedures. The level of cAMP was measured using frozen recombinant 1321N1 cells expressing the human serotonin 5-HT6R (PerkinElmer). Total cAMP was measured using the LANCE cAMP detection kit (PerkinElmer), according to the manufacturer's recommendations. For quantification of cAMP levels, 2000 cells/well (5 μL) were incubated with mixture of compound 3e, 3f and 3g (5 μL) for 30 min at room temperature in 384-well white opaque microtiter plate. After incubation, the reaction was stopped and cells were lysed by the addition of 10 μL of working solution (5 μL Eu-cAMP and 5 μL ULight-anti-cAMP) for 1 h at room temperature. Time-resolved fluorescence resonance energy transfer (TR-FRET) was detected by an Infinite M1000 Pro (Tecan) using instrument settings from LANCE cAMP detection kit manual. Compound was tested in triplicate at 8 concentrations (10-11–10-4 M). Kb values were calculated from Cheng–Prusoff equation specific for the analysis of functional inhibition curves:
Kb = IC50/(1+A/EC50) where A represents agonist concentration, IC50 the concentration of antagonist producing a 50% reduction in the response to agonist, and EC50 the agonist concentration which causes a half of the maximal response.
1.1.1. Impact of evaluated compounds on cAMP production elicited by constitutively active […]
BRET was measured using a Mithras LB 940 plate reader (Berthold Technologies). […]
In general terms: Cyclic AMP is a second messenger, typically raised through Gs and lowered through Gi signalling.

Series [4] deals with T2, human serotonin 5-HT2A receptor (Homo sapiens, UniProt P28223).
T2 construct: host or cells: CHO-K1
T2 sequence (P28223 whole entry): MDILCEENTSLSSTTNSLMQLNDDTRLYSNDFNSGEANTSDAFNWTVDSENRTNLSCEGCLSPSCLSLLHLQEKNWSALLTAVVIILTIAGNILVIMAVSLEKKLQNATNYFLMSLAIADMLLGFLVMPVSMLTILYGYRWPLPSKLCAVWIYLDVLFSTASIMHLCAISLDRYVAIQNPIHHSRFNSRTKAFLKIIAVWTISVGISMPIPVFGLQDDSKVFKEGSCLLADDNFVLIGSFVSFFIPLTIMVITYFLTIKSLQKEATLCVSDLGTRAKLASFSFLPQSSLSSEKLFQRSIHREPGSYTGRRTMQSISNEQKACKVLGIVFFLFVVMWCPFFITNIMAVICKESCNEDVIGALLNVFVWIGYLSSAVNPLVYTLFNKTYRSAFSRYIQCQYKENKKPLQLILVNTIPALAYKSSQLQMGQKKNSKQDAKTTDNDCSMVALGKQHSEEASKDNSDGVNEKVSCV
The experiment in a line: Radioligand binding, [3H]-ketanserin displacement, CHO-K1 cells. The settings on record: mean ± SEM, three independent binding experiments; read-out: Ki [nM] 5-HT2AR.

Series [5] is described as follows: Cytotoxicity, MTT test, C8-D1A. It is filed as cell-based. To be noted: mouse, C8-D1A cells (mouse astrocytes). The method, then: as §1
The nature of series [6]: Cytotoxicity, MTT test, HepG2. The settings on record: human, HepG2 cells (human hepatocellular carcinoma). Type of series: cell-based. On the procedure:
as §1

The target in series [7] is T1, 5-HT6R. The experiment in a line: Inhibition of 5-CT-induced cAMP production in 1321N1 cells (LANCE TR-FRET). It is filed as cell-based. The arrangement: host or cells: 1321N1 (frozen recombinant cells). The settings on record: 5-CT as agonist, mean ± SEM, three independent experiments.

T1 sequence (P50406 whole entry): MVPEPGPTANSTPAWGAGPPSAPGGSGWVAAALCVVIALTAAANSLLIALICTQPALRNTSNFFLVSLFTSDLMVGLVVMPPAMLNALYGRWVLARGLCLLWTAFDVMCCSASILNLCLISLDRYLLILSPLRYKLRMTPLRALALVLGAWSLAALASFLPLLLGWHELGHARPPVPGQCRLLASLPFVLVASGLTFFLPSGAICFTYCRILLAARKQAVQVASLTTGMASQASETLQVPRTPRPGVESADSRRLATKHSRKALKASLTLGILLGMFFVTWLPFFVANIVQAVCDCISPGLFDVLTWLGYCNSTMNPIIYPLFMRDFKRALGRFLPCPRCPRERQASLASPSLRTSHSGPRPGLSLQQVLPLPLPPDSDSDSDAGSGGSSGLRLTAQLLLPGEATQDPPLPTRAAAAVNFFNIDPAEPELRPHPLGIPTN

Regarding `O=S(=O)(c1cccc(N2CCNCC2)c1)N1Cc2ccccc2C1` [3e, 2-{[3-(Piperazin-1-yl)phenyl]sulfonyl}isoindoline], the results for the IC50 at 48 h in series [1], in series [5] and in series [6] were 42 µM, greater than 50 µM and greater than 50 µM, respectively. Moreover, the neurite length in series [2] was 11.81 ± 2.61 μm. In addition, the “5-HT6R Functional Profile at Gs Signaling” value (“5-HT6R Functional Profile” below) in series [3] is “Neutral antagonist”. The Ki in series [4] turned out to be 128 ± 37 nM. Besides, the Kb in series [7] was 0.0007 ± 0.0002 µM.
For the molecule `O=S(=O)(c1cccc(N2CCNCC2)c1)N1Cc2cccc(Cl)c2C1` [3f, 4-Chloro-2-{[3-(piperazin-1-yl)phenyl]sulfonyl}isoindoline], the IC50 at 48 h in series [1] is 38 µM; in series [5], greater than 50 µM; in series [6], greater than 50 µM. For the same molecule, the neurite length in series [2] worked out at 10.92 ± 0.89 μm. The “5-HT6R Functional Profile” value in series [3] is “Neutral antagonist”. The Ki in series [4] was found to be 170 ± 32 nM. Also, the Kb in series [7] amounted to 0.0035 ± 0.0008 µM.
Take `O=S(=O)(c1cccc(N2CCNCC2)c1)N1Cc2cccc(Br)c2C1` [3g, 4-Bromo-2-{[3-(piperazin-1-yl)phenyl]sulfonyl}isoindoline]: the IC50 at 48 h in series [1] is 48 µM; in series [5] it was greater than 50 µM; in series [6], greater than 50 µM. The “reduction in neurite growth” value in series [2] (vs vehicle-treated cells) is reported as 50%. Also, the neurite length in series [2] is given as 8.08 ± 0.84 μm. The “functional profile at the 5-HT6R-elicited Cdk5 pathway” value in series [2] (neurite growth) is listed as “potent inverse agonist”. The “5-HT6R Functional Profile” value in series [3] is “Neutral antagonist”. For the same molecule, the Ki in series [4] is 159 ± 25 nM. In series [7], the Kb came to 0.0016 ± 0.0003 µM.

In general, IC50 refers to the point on the concentration scale where inhibition reaches its midpoint. The Ki is the equilibrium dissociation constant of an inhibitor or competing ligand from its target.
